Read-outs that look alike come from different tables or passages of the source.
Columns and labels:
Assay type in all cases: cell-based
Botrytis cinerea = assay: Activity against grey mold caused by Botrytis cinerea in the microtiterplate test (Botrici)
Septoria tritici = assay: Activity against leaf blotch on wheat caused by Septoria tritici, microtiter test (Septtr); settings: active compound alone, 7 days after inoculation
Phytophthora infestans = settings: active compound alone, 7 days after inoculation
Pyricularia oryzae = settings: active compound alone, 7 days after inoculation
[1] = Botrytis cinerea, 168 h, active compound alone, 1 ppm, 7 days after inoculation, read-out: Observed efficacy
[2] = Botrytis cinerea, 168 h, active compound alone, 4 ppm, 7 days after inoculation, read-out: Observed efficacy

**Q.** For `Fc1ccc([C@]2(Cn3cncn3)O[C@H]2c2ccccc2Cl)cc1` (racemic) [Epoxiconazole, (2RS,3SR)-1-[3-(2-chlorophenyl)-2,3-epoxy-2-(4-fluorophenyl)propyl]-1H-1,2,4-triazole], which inhibition of growth at 0.063 ppm (Botrytis cinerea; Botrytis cinerea, 168 h, active compound alone, 0.063 ppm, 7 days after inoculation, read-out: Observed efficacy) is on record?
**A.** 4%

**Q.** And the Observed efficacy (Septoria tritici; 0.016 ppm)?
**A.** 14%

**Q.** And the Observed efficacy (Phytophthora infestans; 0.25 ppm)?
**A.** 12%

**Q.** What does the source list for `COC=C(C(=O)OC)c1ccccc1COc1cccc(C(F)(F)F)n1` [Picoxystrobin, methyl 3-methoxy-2-[2-(6-trifluoromethylpyridin-2-yloxymethyl)phenyl]acrylate]?
**A.** Observed efficacy (Pyricularia oryzae; 0.016 ppm): 21%; Observed efficacy (Phytophthora infestans; 0.25 ppm): 66%

**Q.** How did the Observed efficacy (Botrytis cinerea; active compound alone, 4 ppm, 7 days after inoculation) turn out when “zinc propylenebis(dithiocarbamate) polymer [Propineb]” was run?
**A.** 21%

**Q.** Which Observed efficacy (Phytophthora infestans; 0.25 ppm) does the source give for `N#Cc1c(Cl)c(Cl)c(Cl)c(C#N)c1Cl` [Chlorothalonil, 2,4,5,6-tetrachloroisophthalonitrile] here?
**A.** 20%

**Q.** With `O=C(OCc1cccc(C(F)(F)F)c1)C(=Cc1ccccc1)C(O)c1cccnc1` (stereo not shown) [I.3, (3-trifluoromethylphenyl)methyl 2-[hydroxyl(pyridine-3-yl)methyl]-3-phenylacrylate] as the compound, how does the inhibition of growth at 1 ppm (Botrytis cinerea; [1]) read?
**A.** 9%

**Q.** What about the inhibition of growth at 4 ppm (Botrytis cinerea; [2]) of the same compound?
**A.** 16%

**Q.** And the Observed efficacy (Septoria tritici; 0.063 ppm)?
**A.** 51%

**Q.** What about the Observed efficacy (Pyricularia oryzae; 0.25 ppm) of the same compound?
**A.** 2%

**Q.** And the Observed efficacy (Phytophthora infestans; 1 ppm)?
**A.** 8%

**Q.** And the Observed efficacy (Phytophthora infestans; 4 ppm)?
**A.** 10%

**Q.** How did the inhibition of growth at 4 ppm (Botrytis cinerea; [2]) turn out when `O=C(Nc1ccccc1-c1ccc(Cl)cc1)c1cccnc1Cl` [Boscalid, 2-chloro-N-(4′-chlorobiphenyl-2-yl)nicotinamide] was run?
**A.** 45%

**Q.** What does the source list for `O=C1C2CC=CCC2C(=O)N1SC(Cl)(Cl)Cl` (stereo not shown) [Captan, 2-trichloromethylsulfanyl-3a,4,7,7a-tetrahydroisoindole-1,3-dione]?
**A.** inhibition of growth at 1 ppm (Botrytis cinerea; [1]): 64%; Observed efficacy (Phytophthora infestans; 1 ppm): 26%

**Q.** Which Observed efficacy (Septoria tritici; 16 ppm) does the source give for `Cc1cc(C)nc(Nc2ccccc2)n1` [Pyrimethanil, 4,6-di-methylpyrimidin-2-ylphenylamine] here?
**A.** 50%

**Q.** `C=C(C(=O)OCc1cccc(C(F)(F)F)c1)C(O)c1cccnc1` (stereo not shown) [I.1, (3-trifluoromethylphenyl)methyl 2-[hydroxyl(pyridine-3-yl)methyl]acrylate] was tested. Which inhibition of growth at 4 ppm (Botrytis cinerea; [2]) did it give?
**A.** 5%

**Q.** What about the Observed efficacy (Septoria tritici; 0.016 ppm) of the same compound?
**A.** 9%

**Q.** What about the Observed efficacy (Septoria tritici; 16 ppm) of the same compound?
**A.** 47%

**Q.** And the Observed efficacy (Pyricularia oryzae; 0.016 ppm)?
**A.** 5%

**Q.** What about the Observed efficacy (Phytophthora infestans; 1 ppm) of the same compound?
**A.** 1%

**Q.** And the Observed efficacy (Phytophthora infestans; 4 ppm)?
**A.** 0%

**Q.** And the Observed efficacy (Phytophthora infestans; 16 ppm)?
**A.** 42%

**Q.** With `Cc1ccc(C(C)NC(=O)[C@@H](NC(=O)OC(C)C)C(C)C)cc1` (stereo partly drawn) [Iprovalicarb, isopropyl [(1S)-2-methyl-1-(1-p-tolylethylcarbamoyl)propyl]carbamate] as the compound, how does the inhibition of growth at 1 ppm (Botrytis cinerea; Botrytis cinerea, 168 h, read-out: Observed efficacy) read?
**A.** 2%

**Q.** What does the source list for `COC(=O)N(OC)c1ccccc1COc1ccn(-c2ccc(Cl)cc2)n1` [Pyraclostrobin, pyraclostrobin]?
**A.** Observed efficacy (Septoria tritici; 0.001 ppm): 21%; Observed efficacy (Pyricularia oryzae; 0.001 ppm): 38%

**Q.** For `Cc1ccc(-c2c(Cl)nc(C#N)n2S(=O)(=O)N(C)C)cc1` [Cyazofamid, 4-chloro-2-cyano-N,N-dimethyl-5-(4-methylphenyl)-1H-imidazole-1-sulfonamide], which inhibition of growth at 0.25 ppm (Botrytis cinerea; Botrytis cinerea, 168 h, active compound alone, 0.25 ppm, 7 days after inoculation, read-out: Observed efficacy) is on record?
**A.** 0%
